Measured values taken from US20260258172A1, “CATIONIC POLYMERS WITH SELECTIVE ANTIFUNGAL PROPERTIES” (Uniwersytet Jagiellonski, priority 2022, published 2026).
Converted amounts (≈) assume the structure as drawn.

How the values were obtained:
Test in all cases: Antifungal microdilution MIC test
Assay type in all cases: cell-based
Trichophyton rubrum D320 = conditions: comparative test
Method: (§1) In vitro tests of the antifungal activity of the polymers were performed with respect to selected fungal species obtained from international culture collections and the microorganism collection in the Department of Infection Control and Mycology, Chair of Microbiology, Jagiellonian University Medical College. The test was performed using the microdilution method in a liquid medium on flat-bottomed, 96-well polypropylene titration plates. The applied methodology was based on antifungal susceptibility testing procedures developed by the European Committee on Antimicrobial Susceptibility Testing (EUCAST) and on the Hancock Lab procedure for antimicrobial cationic peptides.
(§2) The test compounds were dissolved in sterile distilled water and starting concentrations of 5 g/L were prepared, from which a series of two-fold dilutions in water were obtained. Respective polymer dilutions were transferred in a volume of 20 μL on titration plates (wells 1-10). 20 μL of sterile distilled water was transferred to each of wells 11 and 12. Wells 1-11 were inoculated with fungi in a volume of 180 μL of fungal cell suspensions in a liquid medium, and 180 μL of the sterile medium was transferred to well 12. Fungal suspensions were prepared from fresh cultures on agar media by collecting spores using a sterile swab into sterile distilled water or sterile distilled water with Tween-20 added. Suspensions of certain strains were filtered to remove any hyphal elements (filters with a pore diameter of 20 μm and 10 μm were used). The suspensions were brought to a density of 0.5 on the McFarland scale, and subsequently diluted to 1:20 in a liquid RPMI-1640 medium with L-glutamine and without sodium bicarbonate, supplemented with glucose (2%) and buffered morpholinopropanesulfonic acid (MOPS) (0.165 mol/L).
(§3) Final polymer concentrations on plates after adding fungal suspensions in the liquid medium were 0.49-250 mg/L or 0.98-500 mg/L.
(§4) Incubation was performed at room temperature, 27° C., 37° C., depending on the fungal species, until fungal growth was obtained in growth control (well 11). After the incubation period, fungal growth was evaluated visually and the lowest polymer concentrations that caused complete fungal growth inhibition (MIC (minimal inhibitory concentration) values) were determined.
(§5) A test was performed on selected fungal strains to compare MIC values of the PMAPTAC133 polymer with the MIC values of two known antifungal drugs (terbinafine and ciclopirox), used in the treatment of fungal infections of glabrous skin, hairy skin and nails.
(§6) The procedure described in the section above (Example 8) was used in the testing.
(§7) The drugs were dissolved in dimethyl sulfoxide (DMSO) and starting concentrations of 4 g/L were prepared, from which series of two-fold dilutions in DMSO were obtained. Respective […] concentrations were diluted to 1:100 in sterile water and subsequently transferred to wells 1-10 on a titration plate in a volume of 20 μL. Wells 11 and 12 were filled up with 20 μL DMSO diluted to 1:10 in water. Wells 1-11 were inoculated with fungi in a volume of 180 μL of fungal cell suspensions in a liquid medium, and […] of the sterile medium was transferred to well 12. Final drug concentrations on plates after adding fungal suspensions in the liquid medium were 0.008-4 mg/L.

[1] = test system: Aspergillus brasiliensis ATCC 16404; conditions: comparative test; for MIC: Aspergillus brasiliensis, ATCC16404
Method: as §1, §2, §3, §4, §5, §6, §7

[2] = test system: Trichophyton interdigitale D182; conditions: comparative test
Method: as §1, §2, §3, §4, §5, §6, §7

Trichophyton rubrum D197 = conditions: comparative test
Method: as §1, §2, §3, §4, §5, §6, §7

[3] = test system: Aspergillus fumigatus SU 56; conditions: comparative test; for MIC: Aspergillus fumigatus, SU56
Method: as §1, §2, §3, §4, §5, §6, §7

Cryptococcus neoformans = conditions: comparative test; for MIC: Cryptococcus neoformans
Method: as §1, §2, §3, §4, §5, §6, §7

[4] = test system: Trichophyton rubrum DSM 16111; conditions: DSM16111, comparative test
Method: as §1, §2, §3, §4, §5, §6, §7

[5] = test system: Trichophyton interdigitale 251; conditions: comparative test
Method: as §1, §2, §3, §4, §5, §6, §7

[6] = test system: Trichophyton tonsurans 264; conditions: comparative test
Method: as §1, §2, §3, §4, §5, §6, §7

[7] = test system: Scopulariopsis brevicaulis DSM 9122; conditions: DSM9122, comparative test
Method: as §1, §2, §3, §4, §5, §6, §7

[8] = test system: Aspergillus flavus ATCC 204304; conditions: comparative test; for MIC: Aspergillus flavus, ATCC204304
Method: as §1, §2, §3, §4, §5, §6, §7

[9] = test system: Aspergillus fumigatus DSM 819; conditions: comparative test; for MIC: Aspergillus fumigatus, DSM819
Method: as §1, §2, §3, §4, §5, §6, §7

[10] = test system: Aspergillus terreus DSM 1958; conditions: comparative test; for MIC: Aspergillus terreus, DSM1958
Method: as §1, §2, §3, §4, §5, §6, §7

[11] = test system: Trichophyton interdigitale DSM4167; conditions: comparative test
Method: as §1, §2, §3, §4, §5, §6, §7

[12] = test system: Scopulariopsis brevicaulis 34; conditions: comparative test
Method: as §1, §2, §3, §4, §5, §6, §7

[13] = test system: Candida albicans ATCC 90028; conditions: ATCC90028, comparative test
Method: as §1, §2, §3, §4, §5, §6, §7

[14] = test system: Fusarium solani strain 155; conditions: comparative test
Method: as §1, §2, §3, §4, §5, §6, §7

[15] = test system: Trichophyton tonsurans DSM 12285; conditions: DSM12285, comparative test
Method: as §1, §2, §3, §4, §5, §6, §7

## Cc1cc(C2CCCCC2)n(O)c(=O)c1 [Ciclopirox, ciclopirox]
Trichophyton rubrum D320; incubation time 24 h
  MIC: > 4 µg/mL
Trichophyton rubrum D320; incubation time 48 h
  MIC: > 4 µg/mL
Trichophyton rubrum D320; incubation time 72 h
  MIC: > 4 µg/mL
[1]; incubation time 24 h
  MIC: > 4 µg/mL
[1]; incubation time 48 h
  MIC: > 4 µg/mL
[2]; incubation time 24 h
  MIC: > 4 µg/mL
[2]; incubation time 48 h
  MIC: > 4 µg/mL
[2]; incubation time 72 h
  MIC: > 4 µg/mL
Trichophyton rubrum D197; incubation time 48 h
  MIC: > 4 µg/mL
Trichophyton rubrum D197; incubation time 72 h
  MIC: > 4 µg/mL
[3]; incubation time 24 h
  MIC: > 4 µg/mL
[3]; incubation time 48 h
  MIC: > 4 µg/mL
Cryptococcus neoformans; incubation time 24 h
  MIC: > 4 µg/mL
  concentration with slight growth suppression: >4 slight mg/L
Cryptococcus neoformans; incubation time 48 h
  MIC: > 4 µg/mL
[4]; incubation time 24 h
  MIC: > 4 µg/mL
[4]; incubation time 48 h
  MIC: > 4 µg/mL
[4]; incubation time 72 h
  MIC: > 4 µg/mL
[5]; incubation time 24 h
  MIC: > 4 µg/mL
[5]; incubation time 48 h
  MIC: > 4 µg/mL
[5]; incubation time 72 h
  MIC: > 4 µg/mL
[6]; incubation time 48 h
  MIC: > 4 µg/mL
[6]; incubation time 72 h
  MIC: > 4 µg/mL
[7]; incubation time 24 h
  MIC: > 4 µg/mL
[7]; incubation time 48 h
  MIC: > 4 µg/mL
[8]; incubation time 24 h
  MIC: > 4 µg/mL
[8]; incubation time 48 h
  MIC: > 4 µg/mL
[9]; incubation time 24 h
  MIC: > 4 µg/mL
[9]; incubation time 48 h
  MIC: > 4 µg/mL
[10]; incubation time 24 h
  MIC: > 4 µg/mL
[10]; incubation time 48 h
  MIC: > 4 µg/mL
[11]; incubation time 24 h
  MIC: > 4 µg/mL
[11]; incubation time 48 h
  MIC: > 4 µg/mL
[11]; incubation time 72 h
  MIC: > 4 µg/mL
[12]; incubation time 24 h
  MIC: > 4 µg/mL
[12]; incubation time 48 h
  MIC: > 4 µg/mL
[13]; incubation time 24 h
  MIC: > 4 µg/mL
[13]; incubation time 48 h
  MIC: > 4 µg/mL
[14]; incubation time 24 h
  MIC: > 4 µg/mL
[14]; incubation time 48 h
  MIC: > 4 µg/mL
[15]; incubation time 48 h
  MIC: > 4 µg/mL
[15]; incubation time 72 h
  MIC: > 4 µg/mL

## CN(C/C=C/C#CC(C)(C)C)Cc1cccc2ccccc12 [Terbinafine, terbinafine]
Trichophyton rubrum D320; incubation time 48 h
  MIC: 0.125 µg/mL (≈ 0.429 µM)
Trichophyton rubrum D320; incubation time 72 h
  MIC: 2 µg/mL (≈ 6.86 µM)
[1]; incubation time 24 h
  MIC: 2 µg/mL (≈ 6.86 µM)
[1]; incubation time 48 h
  MIC: > 4 µg/mL
  concentration with (clear) growth suppression: 2 mg/L
[2]; incubation time 48 h
  MIC: 0.25 µg/mL (≈ 0.858 µM)
[2]; incubation time 72 h
  MIC: 0.5 µg/mL (≈ 1.72 µM)
Trichophyton rubrum D197; incubation time 48 h
  MIC: 0.125 µg/mL (≈ 0.429 µM)
Trichophyton rubrum D197; incubation time 72 h
  MIC: 0.25 µg/mL (≈ 0.858 µM)
[3]; incubation time 24 h
  MIC: 4 µg/mL (≈ 13.7 µM)
[3]; incubation time 48 h
  MIC: > 4 µg/mL
  concentration with growth suppression: >4 mg/L
Cryptococcus neoformans; incubation time 24 h
  MIC: > 4 µg/mL
Cryptococcus neoformans; incubation time 48 h
  MIC: > 4 µg/mL
[4]; incubation time 24 h
  MIC: 0.06 µg/mL (≈ 0.206 µM)
[4]; incubation time 48 h
  MIC: 0.25 µg/mL (≈ 0.858 µM)
[4]; incubation time 72 h
  MIC: 0.25 µg/mL (≈ 0.858 µM)
[5]; incubation time 72 h
  MIC: 1 µg/mL (≈ 3.43 µM)
[6]; incubation time 48 h
  MIC: 0.5 µg/mL (≈ 1.72 µM)
[6]; incubation time 72 h
  MIC: 0.5 µg/mL (≈ 1.72 µM)
[7]; incubation time 24 h
  MIC: > 4 µg/mL
[7]; incubation time 48 h
  MIC: > 4 µg/mL
[8]; incubation time 24 h
  MIC: 4 µg/mL (≈ 13.7 µM)
[8]; incubation time 48 h
  MIC: > 4 µg/mL
  concentration with growth suppression: 2 mg/L
[9]; incubation time 24 h
  MIC: > 4 µg/mL
  concentration with growth suppression: 2 mg/L
[9]; incubation time 48 h
  MIC: > 4 µg/mL
[10]; incubation time 24 h
  MIC: 2 µg/mL (≈ 6.86 µM)
[10]; incubation time 48 h
  MIC: > 4 µg/mL
  concentration with growth suppression: 2 mg/L
[11]; incubation time 48 h
  MIC: 0.25 µg/mL (≈ 0.858 µM)
[11]; incubation time 72 h
  MIC: 0.25 µg/mL (≈ 0.858 µM)
[12]; incubation time 24 h
  MIC: > 4 µg/mL
[12]; incubation time 48 h
  MIC: > 4 µg/mL
[13]; incubation time 24 h
  MIC: > 4 µg/mL
[13]; incubation time 48 h
  MIC: > 4 µg/mL
[14]; incubation time 24 h
  MIC: > 4 µg/mL
[14]; incubation time 48 h
  MIC: > 4 µg/mL
[15]; incubation time 48 h
  MIC: 0.25 µg/mL (≈ 0.858 µM)
[15]; incubation time 72 h
  MIC: 0.25 µg/mL (≈ 0.858 µM)
